Assays:
[1] = test system: AMPK signaling in mouse primary hepatocytes; experiment: AMPK signaling in primary hepatocytes, western blotting; assay type: cell-based
Protocol: Figure 4 The C2 Prodrug, C13, Potently Activates AMPK in Mouse Primary Hepatocytes (A) Isolated mouse hepatocytes were incubated with vehicle or the indicated concentrations of C13 for 1 hr. AICAR (0.5 mM) was included as a positive control. Cell lysates were analyzed using western blotting with the indicated antibodies. (B) AMPKα1 or AMPKα2 complexes were immunoprecipitated from hepatocyte extracts prepared as described in (A) and assayed for kinase activity using 0.2 mM AMARA and 0.1 mM ATP. Results are expressed as the mean Pi incorporated in picomoles per minute-milligram ± SD. (C) Hepatocytes were stimulated with 30 μM C13 for the indicated times prior to harvesting, with AICAR (0.5 mM, 1 hr) as positive control. Lysates were analyzed using western blotting with the indicated antibodies. (D) Mouse hepatocytes were treated with the indicated compounds for 1 hr, and adenine nucleotide ratios were determined using capillary electrophoresis of perchloric acid extracts. (E) Mouse hepatocytes were preincubated with 30 μM STO-609 for 30 min prior to stimulation with 30 μM C13 for 1 hr or with 1 μM ionomycin for 30 min. Lysates were analyzed using western blotting with the indicated antibodies. (F) Wild-type (LKB1^+/+) or LKB1-null (LKB1^−/−) mouse embryonic fibroblasts were incubated with the indicated concentrations of C13 for 1 hr. AICAR (2 mM) was included as a positive control. Lysates were analyzed using western blotting with the indicated antibodies. Results are representative of three independent experiments. […]
Isolation of primary hepatocytes. Hepatocytes were isolated from fasted mice by collagenase digestion (Berry and Friend, 1969). Cells were seeded in M199 containing 100 U/ml penicillin G, 100 µg/ml streptomycin, 0.1 % (w/v) BSA, 10 % (v/v) FBS, 10 nM insulin, 200 nM triiodothyronine and 100 nM dexamethasone. Post attachment (3-4 h), cells were cultured overnight in M199 supplemented with antibiotics and 100 nM dexamethasone and used for experiments the following morning.
Western blotting. Cells were stimulated as indicated, rinsed with ice-cold PBS and lysed with 50 mM tris pH 7.5, 1 mM EDTA, 1 mM EGTA, 0.27 M sucrose, 1 % (w/v) Triton X-100, 20 mM glycerol-2-phosphate, 50 mM NaF, 5 mM Na4P2O7, 1 mM Na3VO4, 1 mM DTT, 0.5 mM PMSF, 1 mM benzamidine and 1 µM microcystin-LR. Lysates were clarified at 3000 g for 5 min at 4 °C and normalised using Bradford reagent and BSA as standard. Lysates (20 µg) were denatured in Laemlli buffer, separated on 7.5 % tris-glycine gels and transferred to PVDF in Towbin buffer. Membranes were blocked in 5 % (w/v) milk for 1 h at RT and incubated overnight in the indicated primary antibodies at 4 °C. Membranes were developed using HRP-conjugated antibodies and ECL reagent.
Nucleotide measurements. Cultured hepatocytes were incubated with the indicated compounds and washed with ice-cold 0.9 % (w/v) saline before extraction in 5 % perchloric acid. Precipitated material was removed by centrifugation (13,000 RPM, 3 min) and supernatant neutralised with 1:1 trioctylamine:Freon-113 (Khym, 1975). Nucleotides were separated and quantified by capillary electrophoresis using a Beckman P/ACE instrument as previously described (Hawley, et al., 2010).

[2] = test system: LKB1−/− mouse embryonic fibroblasts; experiment: AMPK and ACC phosphorylation in LKB1-null fibroblasts; assay type: cell-based; conditions: 1 hr; AICAR 2 mM
Protocol: AICAR (0.5 mM) was included as a positive control. Cell lysates were analyzed using western blotting with the indicated antibodies. (B) AMPKα1 or AMPKα2 complexes were immunoprecipitated from hepatocyte extracts prepared as described in (A) and assayed for kinase activity using 0.2 mM AMARA and 0.1 mM ATP. Results are expressed as the mean Pi incorporated in picomoles per minute-milligram ± SD. (C) Hepatocytes were stimulated with 30 μM C13 for the indicated times prior to harvesting, with AICAR (0.5 mM, 1 hr) as positive control. Lysates were analyzed using western blotting with the indicated antibodies. (D) Mouse hepatocytes were treated with the indicated compounds for 1 hr, and adenine nucleotide ratios were determined using capillary electrophoresis of perchloric acid extracts. […] Lysates were analyzed using western blotting with the indicated antibodies. (F) Wild-type (LKB1^+/+) or LKB1-null (LKB1^−/−) mouse embryonic fibroblasts were incubated with the indicated concentrations of C13 for 1 hr. AICAR (2 mM) was included as a positive control. Lysates were analyzed using western blotting with the indicated antibodies.

Question: What does the source list for CC(C)C(=O)OCOP(=O)(OCOC(=O)C(C)C)c1ccc(C2=NOC(=O)C2)o1 [Compound C13]?
Answer: time course of Thr172 phosphorylation ([1]; 30 μM): continually increased up to 2 hr; time to maximal phosphorylation of downstream targets (ACC, Raptor, and ULK1) ([1]; 30 μM): 45 to 60 min; insulin-stimulated mTORC1 activation (phosphorylation of p70S6K and 4EBP1) ([1]; 30 µM, 10 mU/ml insulin, 60 min): suppressed; concentration above which Raptor and ULK1 were significantly phosphorylated ([1]; 1 hr): 1 to 3 µM; concentration above which phosphorylation of ACC was evident ([1]; 1 hr): 0.03 to 0.1 µM; concentration at which ACC phosphorylation appeared saturated ([1]; 1 hr): 1 to 3 µM; concentration at which Thr389 p70S6K1 phosphorylation was suppressed ([1]; 1 hr): above 1 μM; lowest concentration with elevation of Thr172 phosphorylation ([1]; 1 hr): 10 µM; compound-induced phosphorylation of AMPK and ACC [2]: abolished
